In paper PMC10999558, “Analyzing resistome in soil and Human gut: a study on the characterization and risk evaluation of antimicrobial peptide resistance” (Frontiers in Microbiology, 2024):

Legend:
Type in all cases: cell-based, Escherichia coli
Conditions in all cases: MHB, 37°C, 24 h, triplicate
[1] = system: E. coli JM109; test: MIC, broth microdilution, retransformed E. coli JM109
Procedure: (§1) Escherichia coli DH5α, E. coli BL21(DE3), and E. coli JM109 were utilized in this study.
(§2) The MICs were determined using the broth microdilution method in 96-well microtiter plates ([Wiegand et al., 2008]). In brief, a 1:100 dilution of the mid-exponential phase bacterial culture (OD600 = 0.5), consisting of 5 μL (1 × 10^5 CFU/mL), was introduced into polypropylene 96-well plates. These plates contained a two-fold dilution series of AMP in a total volume of 100 μL MHB per well. The incubation of the plates occurred at 37°C in a humidity chamber. The MIC was identified as the lowest concentration that hindered visible bacterial growth after 24 h of incubation. Each experiment was conducted in triplicate.
(§3) Before washing down the colonies, we randomly selected two clones from each plate containing distinct AMP. Colony PCRs were conducted using M13 primer pairs to validate the presence of inserts and determine their sizes. The selected colonies were then subjected to sequencing. The specific details are provided in Supplementary Table S2. Following that, plasmids were isolated using the Plasmid Midiprep Kit (Zomanbio, ZP103) following the manufacturer’s guidelines. After the plasmids were successfully reintroduced into E. coli JM109 and E. coli BL 21(DE3), the MICs of the transformed strains against the AMP used for selection were tested. This testing process was carried out in triplicate.
(§4) Following validation, the colonies displaying resistance underwent additional testing via MIC assessments for the remaining four AMPs that were not employed during the selection process. This experimental procedure was carried out in triplicate.

[2] = system: E. coli BL21(DE3); test: MIC, broth microdilution, retransformed E. coli BL21(DE3)
Procedure: as §1, §2, §3, §4

[3] = system: E. coli DH5α; test: MIC, broth microdilution, E. coli DH5α carrying pUC118 or resistance-conferring plasmids
Procedure: as §1, §2, §4

Substance: Iseganan [IB367]
- MIC ([1]; colony pUC118-FCST1-JM109 (feces insert 1 selected against colistin)): 8 µg/mL
- MIC ([1]; colony pUC118-FCST2-JM109 (feces insert 2 selected against colistin)): 8 µg/mL
- MIC ([1]; colony pUC118-FGQ1-JM109 (feces insert 1 selected against melittin)): 8 µg/mL
- MIC ([1]; colony pUC118-FGQ2-JM109 (feces insert 2 selected against melittin)): 16 µg/mL
- MIC ([1]; colony pUC118-FIB1-JM109 (feces insert 1 selected against iseganan)): 16 µg/mL
- MIC ([1]; colony pUC118-FIB2-JM109 (feces insert 2 selected against iseganan)): 32 µg/mL
- MIC ([1]; colony pUC118-FPB1-JM109 (feces insert 1 selected against polymyxin B)): 32 µg/mL
- MIC ([1]; colony pUC118-FPB2-JM109 (feces insert 2 selected against polymyxin B)): 8 µg/mL
- MIC ([1]; colony pUC118-FSA1-JM109 (feces insert 1 selected against cathelicidin-DM)): 8 µg/mL
- MIC ([1]; colony pUC118-FSA2-JM109 (feces insert 2 selected against cathelicidin-DM)): 8 µg/mL
- MIC ([1]; colony pUC118-JM109 (control, no insert)): 8 µg/mL
- MIC ([1]; colony pUC118-SCST1-JM109 (soil insert 1 selected against colistin)): 8 µg/mL
- MIC ([1]; colony pUC118-SCST2-JM109 (soil insert 2 selected against colistin)): 8 µg/mL
- MIC ([1]; colony pUC118-SGQ1-JM109 (soil insert 1 selected against melittin)): 8 µg/mL
- MIC ([1]; colony pUC118-SGQ2-JM109 (soil insert 2 selected against melittin)): 8 µg/mL
- MIC ([1]; colony pUC118-SIB1-JM109 (soil insert 1 selected against iseganan)): 32 µg/mL
- MIC ([1]; colony pUC118-SIB2-JM109 (soil insert 2 selected against iseganan)): 16 µg/mL
- MIC ([1]; colony pUC118-SPB1-JM109 (soil insert 1 selected against polymyxin B)): 8 µg/mL
- MIC ([1]; colony pUC118-SPB2-JM109 (soil insert 2 selected against polymyxin B)): 8 µg/mL
- MIC ([1]; colony pUC118-SSA1-JM109 (soil insert 1 selected against cathelicidin-DM)): 16 µg/mL
- MIC ([1]; colony pUC118-SSA2-JM109 (soil insert 2 selected against cathelicidin-DM)): 16 µg/mL
- MIC ([2]; colony pUC118-BL21(DE3) (control, no insert)): 16 µg/mL
- MIC ([2]; colony pUC118-FCST1-BL21(DE3) (feces insert 1 selected against colistin)): 16 µg/mL
- MIC ([2]; colony pUC118-FCST2-BL21(DE3) (feces insert 2 selected against colistin)): 16 µg/mL
- MIC ([2]; colony pUC118-FGQ1-BL21(DE3) (feces insert 1 selected against melittin)): 16 µg/mL
- MIC ([2]; colony pUC118-FGQ2- BL21(DE3) (feces insert 2 selected against melittin)): 32 µg/mL
- MIC ([2]; colony pUC118-FIB1-BL21(DE3) (feces insert 1 selected against iseganan)): 32 µg/mL
- MIC ([2]; colony pUC118-FIB2-BL21(DE3) (feces insert 2 selected against iseganan)): 32 µg/mL
- MIC ([2]; colony pUC118-FPB1-BL21(DE3) (feces insert 1 selected against polymyxin B)): 32 µg/mL
- MIC ([2]; colony pUC118-FPB2-BL21(DE3) (feces insert 2 selected against polymyxin B)): 16 µg/mL
- MIC ([2]; colony pUC118-FSA1-BL21(DE3) (feces insert 1 selected against cathelicidin-DM)): 16 µg/mL
- MIC ([2]; colony pUC118-FSA2-BL21(DE3) (feces insert 2 selected against cathelicidin-DM)): 16 µg/mL
- MIC ([2]; colony pUC118-SCST1-BL21(DE3) (soil insert 1 selected against colistin)): 16 µg/mL
- MIC ([2]; colony pUC118-SCST2-BL21(DE3) (soil insert 2 selected against colistin)): 16 µg/mL
- MIC ([2]; colony pUC118-SGQ1-BL21(DE3) (soil insert 1 selected against melittin)): 16 µg/mL
- MIC ([2]; colony pUC118-SGQ2-BL21(DE3) (soil insert 2 selected against melittin)): 16 µg/mL
- MIC ([2]; colony pUC118-SIB1-BL21(DE3) (soil insert 1 selected against iseganan)): 32 µg/mL
- MIC ([2]; colony pUC118-SIB2-BL21(DE3) (soil insert 2 selected against iseganan)): 32 µg/mL
- MIC ([2]; colony pUC118-SPB1-BL21(DE3) (soil insert 1 selected against polymyxin B)): 16 µg/mL
- MIC ([2]; colony pUC118-SPB2-BL21(DE3) (soil insert 2 selected against polymyxin B)): 16 µg/mL
- MIC ([2]; colony pUC118-SSA1-BL21(DE3) (soil insert 1 selected against cathelicidin-DM)): 32 µg/mL
- MIC ([2]; colony pUC118-SSA2-BL21(DE3) (soil insert 2 selected against cathelicidin-DM)): 16 µg/mL
- MIC ([3]; E. coli DH5α containing pUC118 plasmids): 16 µg/mL
- MIC ([3]; colony pUC118-DH5α (control, no insert)): 16 µg/mL
- MIC ([3]; colony pUC118-FCST1-DH5α (feces insert 1 selected against colistin)): 16 µg/mL
- MIC ([3]; colony pUC118-FCST2-DH5α (feces insert 2 selected against colistin)): 16 µg/mL
- MIC ([3]; colony pUC118-FGQ1-DH5α (feces insert 1 selected against melittin)): 16 µg/mL
- MIC ([3]; colony pUC118-FGQ2-DH5α (feces insert 2 selected against melittin)): 32 µg/mL
- MIC ([3]; colony pUC118-FIB1-DH5α (feces insert 1 selected against iseganan)): 32 µg/mL
- MIC ([3]; colony pUC118-FIB2-DH5α (feces insert 2 selected against iseganan)): 32 µg/mL
- MIC ([3]; colony pUC118-FPB1-DH5α (feces insert 1 selected against polymyxin B)): 32 µg/mL
- MIC ([3]; colony pUC118-FPB2-DH5α (feces insert 2 selected against polymyxin B)): 16 µg/mL
- MIC ([3]; colony pUC118-FSA1-DH5α (feces insert 1 selected against cathelicidin-DM)): 16 µg/mL
- MIC ([3]; colony pUC118-FSA2-DH5α (feces insert 2 selected against cathelicidin-DM)): 16 µg/mL
- MIC ([3]; colony pUC118-SCST1-DH5α (soil insert 1 selected against colistin)): 16 µg/mL
- MIC ([3]; colony pUC118-SCST2-DH5α (soil insert 2 selected against colistin)): 16 µg/mL
- MIC ([3]; colony pUC118-SGQ1-DH5α (soil insert 1 selected against melittin)): 16 µg/mL
- MIC ([3]; colony pUC118-SGQ2-DH5α (soil insert 2 selected against melittin)): 16 µg/mL
- MIC ([3]; colony pUC118-SIB1-DH5α (soil insert 1 selected against iseganan)): 32 µg/mL
- MIC ([3]; colony pUC118-SIB2-DH5α (soil insert 2 selected against iseganan)): 32 µg/mL
- MIC ([3]; colony pUC118-SPB1-DH5α (soil insert 1 selected against polymyxin B)): 16 µg/mL
- MIC ([3]; colony pUC118-SPB2-DH5α (soil insert 2 selected against polymyxin B)): 16 µg/mL
- MIC ([3]; colony pUC118-SSA1-DH5α (soil insert 1 selected against cathelicidin-DM)): 32 µg/mL
- MIC ([3]; colony pUC118-SSA2-DH5α (soil insert 2 selected against cathelicidin-DM)): 32 µg/mL
